Results as given in patent US5021435A, “Certain pyridyl-thiazolidin-4-one having anti-ulcer activity” (Sumitomo Pharmaceuticals Company, Limited, priority 1988, dated 1991).
In brackets after ≈: the same amount, converted by molar mass. Read-outs that look alike come from different tables or passages of the source.

Legend:
[1] = system: water-immersion and restraint stress induced gastric ulcer; experiment: Antiulcer test: water-immersion and restraint stress induced gastric ulcer model in rats; assay type: in vivo, Sprague-Dawley strain male rats; conditions: for inhibition in vivo at 100 mg/kg / inhibition in vivo at 50 mg/kg / inhibition in vivo at 30 mg/kg: Rattus norvegicus, po, 17 h, read-out: Effect (inhibitory percentage of ulcer formation, judgement); for inhibition in vivo at 100 mg/kg: 100 mg/kg oral; for inhibition of stress-induced ulcer (in words): discussion statement; for Test on anti-ulceration (ulcer caused by stress), Test (1): 100 mg/kg P.O.
Procedure: Sprague-Dawley strain male rats (body weight: 200-250 g) fasted for 24 hours (with free access of water) were used for the test. (1) Antiulcer test Anticular effect of the compound was examined by means of water-immersion and restraint stress induced gastric ulcer model in rats. The ulcer experiment was performed in accordance with the method of Takagi and Okabe referred to hereinafter. Rats were immobilized in a restraint cage. The animals were then immersed vertically to the level of the xiphoid process in water bath (23° C.) for 17 hr and killed by deep ether anesthesia. The stomach of each rat was removed and inflated by injecting 10 ml of 1% formalin to fix the inner and outer layer of gastric wall. Subsequently, the stomach was incised along the greater curveture and the length of ulcers in glandular portion was measured. The sum of the length (mm) of each ulcer was used as an ulcer index. Test compound was suspended in 0.5% methylcellulose solution and was orally administered at a volume of 5 ml/kg to the rat 30 minutes prior to stress loading. To the control group was administered vehicle alone at the same volume. Inhibitory percentage of ulcer formation of the compound was calculated from the following formula. [formula]

[2] = system: PAF-induced ulcer; experiment: Test on PAF-induced ulcer; assay type: in vivo, Sprague-Dawley strain male rats; conditions: for Test on inhibition of PAF-induced ulcer, Test (3): rat, 100 mg/kg P.O. 30 minutes before PAF, effective = statistically significant vs control
Procedure: (§1) Sprague-Dawley strain male rats (body weight: 200-250 g) fasted for 24 hours (with free access of water) were used for the test.
(3) Test on PAF-induced ulcer
Inhibitory effect of the compound on PAF-induced ulcer was examined. PAF-induced ulcer in rat was caused by intravenous administration of 10 μg/kg of PAF. One hour after PAF administration, rat was killed under deep ether anesthesia and stomach was removed. The stomach was inflated and fixed by injecting 10 ml of 1% formalin solution and then cut open along greater curvature. Areas (mm^2) of the ulcerated portions were measured and sum of them was taken as ulcer-index. Test compound was suspended in a 0.5% methylcellulose solution and orally administered at a volume of 5 ml/kg 30 minutes before the administration of PAF. Vehicle alone was administered to control rat at the same volume with test group. With reference to the effect of the compound to inhibit ulceration, results of treated group and those of control group were compared and those which have a statistical significance was judged to be effective.

[3] = system: PAF-induced platelet aggregation; experiment: Anti-PAF test in vitro (inhibitory action on PAF-induced platelet aggregation, PRP); assay type: cell-based, rabbit (male Japanese white rabbits); conditions: Oryctolagus cuniculus, rabbit PRP
Procedure: The inhibition of PAF-induced platelet aggregation was examined by using a platelet-rich plasma (PRP) of rabbit according to the method of Mustard et al. [J. F. Mustard et al., J. Lab. Blin. Med., 64, 548 (1964)], which is an improved method of Born [G.V.R. Born, J. Physiol., London, 162, 67 (1962) ]. That is, 80-100 ml of blood per animal was collected from carotoid arteries of conscious male Japanese white rabbits into a polyethylene vessel containing 1/10 the volume of a 3.8% sodium citrate solution. A portion (about 3 ml) of the collected blood was centrifuged at a high speed (11,000 rpm) for 60 seconds to give a platelet-poor plasma (PPP) as supernatant. The remainder of the blood was centrifuged at a low speed (1000 rpm) for 10 minutes to give a platelet-rich plasma (PRP) as supernatant.
The degree of platelet aggregation was determined by nephelometry with an aggregometer (Hematracer, Niko Biosciene Co.) while stirring the PRP at 1000 rpm at 37° C. The degree of platelet aggregation was expressed in terms of the light transmittance (%), the value of PRP being taken as 0% and the value of […]. A portion (0.2 ml) of the PRP was placed into a glass cuvette containing a silicone-coated stirring iron bar, and 2 μl of dimethylsulfoxide was added. After 2 minutes, PAF dissolved in physiological saline containing 0.25% BSA was added to give a final PAF concentration of […], and the maximum aggregation was determined. To measure the inhibitory activity of test compounds on the platelet aggregation induced by PAF, 2 μl of a dimethylsulfoxide solution of each test compound was added in place of dimethylsulfoxide. The inhibitory percentage by the test compound of PAF-induced platelet aggregation was calculated according to the following equation and the value of IC50 was determined. [formula]

[4] = system: peripherally stimulated gastric acid secretion (histamine); experiment: Gastric acid secretion stimulated peripherally by histamine; assay type: in vivo, Sprague-Dawley strain male rats; conditions: rat, 30 mg/kg into duodenum 2 hours before stimulant; histamine 10 mg/kg s.c.
Procedure: as §1
(§2) (2) Test on central acting inhibitory effect of gastric acid secretion
(§3) Whether the antisecretory effect of the compound is based on central action or not was judged according to mode of antisecretory action of the compound to centrally stimulated gastric acid secretion and peripherally stimulated gastric acid secretion. […]
(§4) We determined the site of action (central or peripheral) of the compound by the result from above examination. […]
(§5) Gastric acid was collected every 20 min. by flushing the gastric lumen with 5 ml saline. The acid content of each sample was determined by titration of 0.02 N-NaOH.
(§6) Peripheral stimulation of gastric acid secretion was carried out by subcutaneous administration of 10 mg/kg of histamine or 1 mg/kg of bethanechol. […] Inhibitory percentage of acid secretion of the compound was calculated from the following formula. […]

[5] = system: centrally stimulated gastric acid secretion (baclofen); experiment: Central acting inhibitory effect of gastric acid secretion: baclofen-stimulated (central); assay type: in vivo, Sprague-Dawley strain male rats; conditions: rat, 30 mg/kg into duodenum 2 hours before stimulant; baclofen 2 mg/kg s.c.
Procedure: as §1, §2, §3, §4, §5, §6

[6] = system: peripherally stimulated gastric acid secretion (bethanechol); experiment: Gastric acid secretion stimulated peripherally by bethanechol; assay type: in vivo, Sprague-Dawley strain male rats; conditions: rat, 30 mg/kg into duodenum 2 hours before stimulant; bethanechol 1 mg/kg s.c.
Procedure: as §1, §2, §3, §4, §5, §6

[7] = system: PAF-induced ulcer; conditions: cited from earlier work
[8] = rat, 30 minutes prior to stress
[9] = rat, 50 mg/kg oral, 30 minutes prior to stress

## CN1C(=O)[C@H](c2ccc(F)cc2)S[C@@H]1c1cccnc1 (relative stereo) [Example 221]
[1]; [8]
  inhibition in vivo at 100 mg/kg: > 80%

## CN1C(=O)[C@H](c2ccc(C(F)(F)F)cc2)S[C@@H]1c1cccnc1 (relative stereo) [Example 246]
[1]; [8]
  inhibition in vivo at 100 mg/kg: 60 to 80%

## COc1cc([C@H]2CC[C@H](c3cc(OC)c(OC)c(OC)c3)O2)cc(OC)c1OC (relative stereo) [Example L-652731, trans2,5-bis(3,4,5-trimethoxyphenyl)tetrahydrofuran, reference compound]
[1]
  inhibition of stress-induced ulcer (in words): cannot be inhibited
[1]; rat
  Test on anti-ulceration (ulcer caused by stress), Test (1): Ineffective
[2]; discussion statement
  inhibition of PAF-induced ulcer (in words): remarkably inhibited
[2]
  Test on inhibition of PAF-induced ulcer, Test (3): Effective
[3]
  IC50: 0.2 µg/mL (≈ 0.494 µM)

## CN1C(=O)C(c2ccc(Cl)cc2)SC1c1cccnc1 (single isomer, unassigned) [2 (Isomer II), 5-(4-Chlorophenyl)-3-methyl-2-(3-pyridyl)-thiazolidin-4-one]
[4]
  Inhibitory percentage of acid secretion (judgement), stimulant histamine: - (Less than 40%.)
[5]
  Inhibitory percentage of acid secretion (judgement), stimulant baclofen: +++ (Not less than 80%.)
[1]; [9]
  inhibition in vivo at 50 mg/kg: > 80%
[6]
  Inhibitory percentage of acid secretion (judgement), stimulant bethanechol: - (Less than 40%.)

## CN1C(=O)C(c2ccc(Cl)cc2)[S+]([O-])C1c1cccnc1 (single isomer, unassigned) [Example 30, 5-(4-chlorophenyl)-3-methyl-2-(3-pyridyl)-1-oxo-thiazolidin-4-one]
[1]; [9]
  inhibition in vivo at 50 mg/kg: 40 to 60%

## CN1C(=O)C(c2ccc(Cl)cc2)[S+]([O-])C1c1cccnc1 (single isomer, unassigned) [Example 31, 5-(4-chlorophenyl)-3-methyl-2-(3-pyridyl)-1-oxo-thiazolidin-4-one]
[1]; rat, 50 mg/kg oral, 30 minutes prior to stress, 50 mg/kg
  Effect (inhibitory percentage of ulcer formation, judgement): ++ (Not less than 60% and less than 80%.)

## CN1C(=O)[C@@H](c2ccc(Cl)cc2)S[C@H]1c1cccnc1 (single isomer, unassigned) [Example 33, (+)-cis-5-(4-chlorophenyl)-3-methyl-2-(3-pyridyl)thiazolidin-4-one]
[1]; rat, 30 mg/kg oral, 30 minutes prior to stress
  inhibition in vivo at 30 mg/kg: > 80%

## CN1C(=O)[C@@H](c2ccc(Cl)cc2)S[C@H]1c1cccnc1 (single isomer, unassigned) [Example 34, (-)-cis-5-(4-chlorophenyl)-3-methyl-2-(3-pyridyl)thiazolidin-4-one]
[1]; [8]
  inhibition in vivo at 100 mg/kg: 60 to 80%

## CN/C(=N/CCSCc1nc[nH]c1C)NC#N [Cimetidine, reference compound]
[7]; discussion statement, Table 5 cites Nature 319, 54-56 (1986)
  inhibition of PAF-induced ulcer (in words): cannot be inhibited
[7]; table head 100 mg/kg P.O., (*) Nature 319, 54-56 (1986)
  Test on inhibition of PAF-induced ulcer: Ineffective
[1]
  inhibition in vivo at 30 mg/kg: 60 to 80%
  inhibition of stress-induced ulcer (in words): can be inhibited
[1]; rat
  Test on anti-ulceration (ulcer caused by stress), Test (1): Effective

## CN1C(=O)C(c2ccc(Cl)cc2)SC1c1cccnc1 (stereo not drawn) [Example 1, 5-(4-chlorophenyl)-3-methyl-2-(3-pyridyl)thiazolidin-4-one]
[1]; [9]
  inhibition in vivo at 50 mg/kg: 60 to 80%
[1]; rat
  Test on anti-ulceration (ulcer caused by stress), Test (1): Effective
[2]
  Test on inhibition of PAF-induced ulcer, Test (3): Effective
[3]
  IC50: 5.8 µg/mL (≈ 19 µM)

## CN1C(=O)C(c2ccc(F)cc2)SC1c1cccnc1 (stereo not drawn) [Example 42]
[1]; [9]
  inhibition in vivo at 50 mg/kg: > 80%
[1]; rat
  Test on anti-ulceration (ulcer caused by stress), Test (1): Effective
[2]
  Test on inhibition of PAF-induced ulcer, Test (3): Effective
[3]
  IC50: 4 µg/mL (≈ 13.9 µM)

## CN1C(=O)C(c2ccc(Cl)cc2)SC1c1ccncc1 (stereo not drawn) [Example 46]
[1]; [9]
  inhibition in vivo at 50 mg/kg: 60 to 80%

## COc1ccc(C2SC(c3cccnc3)N(C)C2=O)cc1 (stereo not drawn) [Example 48]
[1]; [9]
  inhibition in vivo at 50 mg/kg: 40 to 60%

## CN1C(=O)C(c2ccccc2)SC1c1cccnc1 (stereo not drawn) [Example 52]
[1]; [9]
  inhibition in vivo at 50 mg/kg: 40 to 60%

## O=C1NC(c2cccnc2)SC1c1ccc(Cl)cc1 (stereo not drawn) [Example 178]
[1]; [8]
  inhibition in vivo at 100 mg/kg: 40 to 60%

## CN1C(=O)C(c2ccccc2F)SC1c1cccnc1 (stereo not drawn) [Example 198]
[1]; [8]
  inhibition in vivo at 100 mg/kg: > 80%

## CN1C(=O)C(c2ccccc2F)[S+]([O-])C1c1cccnc1 (stereo not drawn) [Example 199]
[1]; [8]
  inhibition in vivo at 100 mg/kg: > 80%

## COc1ccc(C2NC(=O)C(C)S2)cc1OC (stereo not drawn) [Mezolidon, 2-(3,4-dimethoxyphenyl)-5-methylthiazolidin-4-one, reference compound]
[1]; [8]
  inhibition in vivo at 100 mg/kg: < 40%
[1]; statement in words
  effect by the test method employed in the present invention: nearly ineffective
